Data as given in the supplement of paper PMC10307832.

Each cell line was assayed with O=C(/C=C/c1ccccc1)NC(NC(=S)Nc1cccc2cccnc12)C(Cl)(Cl)Cl [Salubrinal] + CS(=O)(=O)N1CCN(Cc2cc3nc(-c4cccc5[nH]ncc45)nc(N4CCOCC4)c3s2)CC1 [Pictilisib] (partner 1 µM) (assay: relative viability (nuclei count vs DMSO), 5 days (fraction); higher = more cells survive). Conditions: first compound 0.08 µM.
Procedure, shortened: (§1)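 Lung cancer cell lines in 1536-well plates were dosed by pin tool the day after seeding, either with one drug alone or with a fixed anchor-drug dose plus five library-drug doses (not always all listed) in √10 steps. After 5 days, cells were fixed and their nuclei stained in one step (final 0.05% Triton X-100, 1% formaldehyde, 1 ug/ml Hoechst), then counted on 4× images. Relative viability is the nuclei count in treated wells divided by that in vehicle wells. Values are medians of duplicate plates.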

Q: NCI-H1793 was tested. Which relative viability did it give?
A: 0.309

Q: How did the relative viability turn out when NCI-H2405 was run?
A: 0.338

Q: How did the relative viability turn out when HOP-62 was run?
A: 0.509

Q: HCC-44 was tested. Which relative viability did it give?
A: 0.592

Q: With LU99A as the cell line, how does the relative viability read?
A: 0.29

Q: With BEN as the cell line, how does the relative viability read?
A: 0.567

Q: How did the relative viability turn out when HARA was run?
A: 0.524

Q: How did the relative viability turn out when HCC-78 was run?
A: 0.195

Q: Which relative viability does the source give for NCI-H322M here?
A: 0.476

Q: With LCLC-97TM1 as the cell line, how does the relative viability read?
A: 0.261

Q: How did the relative viability turn out when A-427 was run?
A: 0.805

Q: How did the relative viability turn out when NCI-H441 was run?
A: 0.479

Q: Which relative viability does the source give for NCI-H1734 here?
A: 0.452

Q: NCI-H460 was tested. Which relative viability did it give?
A: 0.261

Q: With NCI-H2347 as the cell line, how does the relative viability read?
A: 0.805

Q: With NCI-H1395 as the cell line, how does the relative viability read?
A: 0.621

Q: Which relative viability does the source give for 201T here?
A: 0.591

Q: NCI-H1915 was tested. Which relative viability did it give?
A: 0.855

Q: HCC-827 was tested. Which relative viability did it give?
A: 0.959

Q: With LXF-289 as the cell line, how does the relative viability read?
A: 0.871

Q: NCI-H23 was tested. Which relative viability did it give?
A: 0.511

Q: For NCI-H647, which relative viability is on record?
A: 0.298

Q: Which relative viability does the source give for NCI-H1651 here?
A: 0.822

Q: How did the relative viability turn out when EPLC-272H was run?
A: 0.293

Q: For NCI-H1792, which relative viability is on record?
A: 0.324

Q: NCI-H1355 was tested. Which relative viability did it give?
A: 0.366

Q: With NCI-H3122 as the cell line, how does the relative viability read?
A: 0.565

Q: NCI-H1437 was tested. Which relative viability did it give?
A: 0.449

Q: NCI-H1755 was tested. Which relative viability did it give?
A: 0.564

Q: For HCC-15, which relative viability is on record?
A: 0.77

Q: With PC-14 as the cell line, how does the relative viability read?
A: 0.792

Q: EKVX was tested. Which relative viability did it give?
A: 0.508

Q: For LC-2-ad, which relative viability is on record?
A: 0.457

Same assay, conditions: first compound 0.253 µM

Q: NCI-H1793 was tested. Which relative viability did it give?
A: 0.319

Q: How did the relative viability turn out when NCI-H2405 was run?
A: 0.442

Q: Which relative viability does the source give for HOP-62 here?
A: 0.468

Q: HCC-44 was tested. Which relative viability did it give?
A: 0.591

Q: Which relative viability does the source give for LU99A here?
A: 0.35

Q: With BEN as the cell line, how does the relative viability read?
A: 0.606

Q: With HARA as the cell line, how does the relative viability read?
A: 0.328

Q: How did the relative viability turn out when HCC-78 was run?
A: 0.0891

Q: NCI-H322M was tested. Which relative viability did it give?
A: 0.541

Q: For LCLC-97TM1, which relative viability is on record?
A: 0.162

Q: How did the relative viability turn out when A-427 was run?
A: 0.748

Q: How did the relative viability turn out when NCI-H441 was run?
A: 0.432

Q: Which relative viability does the source give for NCI-H1734 here?
A: 0.508

Q: NCI-H460 was tested. Which relative viability did it give?
A: 0.296

Q: NCI-H2347 was tested. Which relative viability did it give?
A: 0.517

Q: With NCI-H1395 as the cell line, how does the relative viability read?
A: 0.651

Q: With 201T as the cell line, how does the relative viability read?
A: 0.636

Q: For NCI-H1915, which relative viability is on record?
A: 0.942

Q: For HCC-827, which relative viability is on record?
A: 1.02

Q: LXF-289 was tested. Which relative viability did it give?
A: 0.728

Q: With NCI-H23 as the cell line, how does the relative viability read?
A: 0.583

Q: With NCI-H647 as the cell line, how does the relative viability read?
A: 0.421

Q: Which relative viability does the source give for NCI-H1651 here?
A: 0.486

Q: With EPLC-272H as the cell line, how does the relative viability read?
A: 0.282

Q: For NCI-H1355, which relative viability is on record?
A: 0.433

Q: For NCI-H3122, which relative viability is on record?
A: 0.633

Q: Which relative viability does the source give for NCI-H1437 here?
A: 0.484

Q: With NCI-H1755 as the cell line, how does the relative viability read?
A: 0.417

Q: How did the relative viability turn out when HCC-15 was run?
A: 0.643

Q: Which relative viability does the source give for PC-14 here?
A: 0.597

Q: For EKVX, which relative viability is on record?
A: 0.494

Q: With LC-2-ad as the cell line, how does the relative viability read?
A: 0.448

Same assay, conditions: first compound 0.8 µM

Q: With NCI-H1793 as the cell line, how does the relative viability read?
A: 0.306

Q: For NCI-H2405, which relative viability is on record?
A: 0.458

Q: For HOP-62, which relative viability is on record?
A: 0.681

Q: HCC-44 was tested. Which relative viability did it give?
A: 0.767

Q: Which relative viability does the source give for LU99A here?
A: 0.356

Q: With BEN as the cell line, how does the relative viability read?
A: 0.746

Q: Which relative viability does the source give for HARA here?
A: 0.558

Q: How did the relative viability turn out when HCC-78 was run?
A: 0.312

Q: With NCI-H322M as the cell line, how does the relative viability read?
A: 0.578

Q: How did the relative viability turn out when LCLC-97TM1 was run?
A: 0.2

Q: A-427 was tested. Which relative viability did it give?
A: 0.853

Q: NCI-H441 was tested. Which relative viability did it give?
A: 0.705

Q: Which relative viability does the source give for NCI-H1734 here?
A: 0.503

Q: For NCI-H460, which relative viability is on record?
A: 0.398

Q: How did the relative viability turn out when NCI-H2347 was run?
A: 0.905

Q: For NCI-H1395, which relative viability is on record?
A: 0.609

Q: 201T was tested. Which relative viability did it give?
A: 0.778

Q: NCI-H1915 was tested. Which relative viability did it give?
A: 0.999

Q: HCC-827 was tested. Which relative viability did it give?
A: 1.06

Q: Which relative viability does the source give for LXF-289 here?
A: 0.829

Q: For NCI-H23, which relative viability is on record?
A: 0.548

Q: With NCI-H647 as the cell line, how does the relative viability read?
A: 0.421

Q: With NCI-H1651 as the cell line, how does the relative viability read?
A: 0.667

Q: For EPLC-272H, which relative viability is on record?
A: 0.355

Q: For NCI-H1792, which relative viability is on record?
A: 0.246

Q: Which relative viability does the source give for NCI-H1355 here?
A: 0.45

Q: NCI-H3122 was tested. Which relative viability did it give?
A: 0.657

Q: For NCI-H1437, which relative viability is on record?
A: 0.415

Q: For NCI-H1755, which relative viability is on record?
A: 0.535

Q: How did the relative viability turn out when HCC-15 was run?
A: 0.837

Q: With PC-14 as the cell line, how does the relative viability read?
A: 0.668

Q: With EKVX as the cell line, how does the relative viability read?
A: 0.525

Q: Which relative viability does the source give for LC-2-ad here?
A: 0.519

Same assay, conditions: first compound 2.53 µM

Q: How did the relative viability turn out when NCI-H1793 was run?
A: 0.316

Q: NCI-H2405 was tested. Which relative viability did it give?
A: 0.406

Q: For HOP-62, which relative viability is on record?
A: 0.505

Q: How did the relative viability turn out when HCC-44 was run?
A: 0.649

Q: With LU99A as the cell line, how does the relative viability read?
A: 0.318

Q: How did the relative viability turn out when BEN was run?
A: 0.643

Q: With HARA as the cell line, how does the relative viability read?
A: 0.328

Q: For HCC-78, which relative viability is on record?
A: 0.232

Q: NCI-H322M was tested. Which relative viability did it give?
A: 0.539

Q: A-427 was tested. Which relative viability did it give?
A: 0.785

Q: With NCI-H441 as the cell line, how does the relative viability read?
A: 0.534

Q: NCI-H1734 was tested. Which relative viability did it give?
A: 0.517

Q: Which relative viability does the source give for NCI-H460 here?
A: 0.482

Q: Which relative viability does the source give for NCI-H2347 here?
A: 0.678

Q: How did the relative viability turn out when NCI-H1395 was run?
A: 0.603

Q: Which relative viability does the source give for 201T here?
A: 0.706

Q: For NCI-H1915, which relative viability is on record?
A: 0.946

Q: Which relative viability does the source give for HCC-827 here?
A: 0.994

Q: With LXF-289 as the cell line, how does the relative viability read?
A: 0.778

Q: Which relative viability does the source give for NCI-H23 here?
A: 0.442

Q: NCI-H647 was tested. Which relative viability did it give?
A: 0.501

Q: Which relative viability does the source give for EPLC-272H here?
A: 0.33

Q: How did the relative viability turn out when NCI-H1792 was run?
A: 0.287

Q: With NCI-H1355 as the cell line, how does the relative viability read?
A: 0.426

Q: NCI-H3122 was tested. Which relative viability did it give?
A: 0.694

Q: With NCI-H1437 as the cell line, how does the relative viability read?
A: 0.417

Q: How did the relative viability turn out when NCI-H1755 was run?
A: 0.431

Q: How did the relative viability turn out when HCC-15 was run?
A: 0.728

Q: For PC-14, which relative viability is on record?
A: 0.702

Q: Which relative viability does the source give for EKVX here?
A: 0.461

Q: With LC-2-ad as the cell line, how does the relative viability read?
A: 0.385

Same assay, conditions: first compound 8 µM

Q: For NCI-H1793, which relative viability is on record?
A: 0.285

Q: How did the relative viability turn out when NCI-H2405 was run?
A: 0.431

Q: How did the relative viability turn out when HOP-62 was run?
A: 0.691

Q: HCC-44 was tested. Which relative viability did it give?
A: 0.493

Q: How did the relative viability turn out when LU99A was run?
A: 0.362

Q: How did the relative viability turn out when BEN was run?
A: 0.549

Q: With HARA as the cell line, how does the relative viability read?
A: 0.375

Q: For HCC-78, which relative viability is on record?
A: 0.229

Q: For NCI-H322M, which relative viability is on record?
A: 0.498

Q: With LCLC-97TM1 as the cell line, how does the relative viability read?
A: 0.181

Q: With A-427 as the cell line, how does the relative viability read?
A: 0.759

Q: How did the relative viability turn out when NCI-H441 was run?
A: 0.294

Q: For NCI-H1734, which relative viability is on record?
A: 0.438

Q: How did the relative viability turn out when NCI-H460 was run?
A: 0.518

Q: With NCI-H2347 as the cell line, how does the relative viability read?
A: 0.434

Q: NCI-H1395 was tested. Which relative viability did it give?
A: 0.504

Q: Which relative viability does the source give for 201T here?
A: 0.678

Q: For NCI-H1915, which relative viability is on record?
A: 0.953

Q: How did the relative viability turn out when HCC-827 was run?
A: 0.898

Q: For LXF-289, which relative viability is on record?
A: 0.731

Q: With NCI-H23 as the cell line, how does the relative viability read?
A: 0.486

Q: NCI-H647 was tested. Which relative viability did it give?
A: 0.427

Q: How did the relative viability turn out when NCI-H1651 was run?
A: 0.423

Q: EPLC-272H was tested. Which relative viability did it give?
A: 0.24

Q: Which relative viability does the source give for NCI-H1792 here?
A: 0.243

Q: Which relative viability does the source give for NCI-H1355 here?
A: 0.425

Q: Which relative viability does the source give for NCI-H3122 here?
A: 0.663

Q: How did the relative viability turn out when NCI-H1437 was run?
A: 0.328

Q: For NCI-H1755, which relative viability is on record?
A: 0.401

Q: With HCC-15 as the cell line, how does the relative viability read?
A: 0.759

Q: With PC-14 as the cell line, how does the relative viability read?
A: 0.626

Q: EKVX was tested. Which relative viability did it give?
A: 0.482

Q: For LC-2-ad, which relative viability is on record?
A: 0.323

Each cell line was assayed with Cc1ccc2nc(NCCN)c3ncc(C)n3c2c1 + O=C(c1cc(Cc2n[nH]c(=O)c3ccccc23)ccc1F)N1CCN(C(=O)C2CC2)CC1 [Olaparib] (partner 8 µM) in the same assay as above. Conditions: first compound 0.04 µM.
Procedure, shortened: as §1

Q: With NCI-H1793 as the cell line, how does the relative viability read?
A: 1.06
